Values after ≈ are worked out from the molar mass of the structure shown.
Legend:
Type in all cases: functional
Staphylococcus aureus [1] = assay: Antibacterial activity against Staphylococcus aureus MTCC 1430 at 1500 ug/ml after 18 hr by cup-plate method; settings: MTCC 1430, 18 h, read-out: DIZ
Aspergillus niger [2] = assay: Antifungal activity against Aspergillus niger MTCC 2546 at 1500 ug/ml after 18 hr by cup-plate method; settings: MTCC 2546, 18 h, read-out: DIZ
Aspergillus niger [3] = assay: Antifungal activity against Aspergillus niger MTCC 2546 after 24 hr by broth dilution method; settings: MTCC 2546, 24 h
Penicillium chrysogenum [4] = assay: Antifungal activity against Penicillium chrysogenum MTCC 161 at 200 ug/ml after 18 hr by cup-plate method; settings: MTCC 161, 18 h, read-out: DIZ
Pseudomonas aeruginosa [5] = assay: Antibacterial activity against Pseudomonas aeruginosa MTCC 424 at 1000 ug/ml after 18 hr by cup-plate method; settings: MTCC 424, 18 h, read-out: DIZ
Aspergillus niger [6] = assay: Antifungal activity against Aspergillus niger MTCC 2546 at 100 ug/ml after 18 hr by cup-plate method; settings: MTCC 2546, 18 h, read-out: DIZ
Penicillium chrysogenum [7] = assay: Antifungal activity against Penicillium chrysogenum MTCC 161 at 1000 ug/ml after 18 hr by cup-plate method; settings: MTCC 161, 18 h, read-out: DIZ
Micrococcus luteus [8] = assay: Antibacterial activity against Micrococcus luteus MTCC 1538 at 100 ug/ml after 18 hr by cup-plate method; settings: MTCC 1538, 18 h, read-out: DIZ
Bacillus subtilis [9] = assay: Antibacterial activity against Bacillus subtilis MTCC 441 at 1000 ug/ml after 18 hr by cup plate method; settings: MTCC 441, 18 h, read-out: DIZ
Pseudomonas fluorescens [10] = assay: Antibacterial activity against Pseudomonas fluorescens MTCC 2421 at 1000 ug/ml after 18 hr by cup-plate method; settings: MTCC 2421, 18 h, read-out: DIZ
Aspergillus niger [11] = assay: Antifungal activity against Aspergillus niger MTCC 2546 at 200 ug/ml after 18 hr by cup-plate method; settings: MTCC 2546, 18 h, read-out: DIZ
Bacillus pumilus [12] = assay: Antibacterial activity against Bacillus pumilus MTCC 1456 at 500 ug/ml after 18 hr by cup-plate method; settings: MTCC 1456, 18 h, read-out: DIZ
Escherichia coli = assay: Antibacterial activity against Escherichia coli MTCC 1573 at 500 ug/ml after 18 hr by cup-plate method; settings: MTCC 1573, 18 h, read-out: DIZ
Penicillium chrysogenum [13] = assay: Antifungal activity against Penicillium chrysogenum MTCC 161 after 24 hr by broth dilution method; settings: MTCC 161, 24 h
Pseudomonas fluorescens [14] = assay: Antibacterial activity against Pseudomonas fluorescens MTCC 2421 at 200 ug/ml after 18 hr by cup-plate method; settings: MTCC 2421, 18 h, read-out: DIZ
Bacillus pumilus [15] = assay: Antibacterial activity against Bacillus pumilus MTCC 1456 at 1000 ug/ml after 18 hr by cup-plate method; settings: MTCC 1456, 18 h, read-out: DIZ
Penicillium chrysogenum [16] = assay: Antifungal activity against Penicillium chrysogenum MTCC 161 at 500 ug/ml after 18 hr by cup-plate method; settings: MTCC 161, 18 h, read-out: DIZ
Bacillus pumilus [17] = assay: Antibacterial activity against Bacillus pumilus MTCC 1456 at 200 ug/ml after 18 hr by cup-plate method; settings: MTCC 1456, 18 h, read-out: DIZ
Bacillus pumilus [18] = assay: Antibacterial activity against Bacillus pumilus MTCC 1456 at 1500 ug/ml after 18 hr by cup-plate method; settings: MTCC 1456, 18 h, read-out: DIZ
Bacillus subtilis [19] = assay: Antibacterial activity against Bacillus subtilis MTCC 441 at 1500 ug/ml after 18 hr by cup plate method; settings: MTCC 441, 18 h, read-out: DIZ
Pseudomonas aeruginosa [20] = assay: Antibacterial activity against Pseudomonas aeruginosa MTCC 424 at 500 ug/ml after 18 hr by cup-plate method; settings: MTCC 424, 18 h, read-out: DIZ
Micrococcus luteus [21] = assay: Antibacterial activity against Micrococcus luteus MTCC 1538 at 200 ug/ml after 18 hr by cup-plate method; settings: MTCC 1538, 18 h, read-out: DIZ
Pseudomonas fluorescens [22] = assay: Antibacterial activity against Pseudomonas fluorescens MTCC 2421 at 500 ug/ml after 18 hr by cup-plate method; settings: MTCC 2421, 18 h, read-out: DIZ
Pseudomonas aeruginosa [23] = assay: Antibacterial activity against Pseudomonas aeruginosa MTCC 424 after 24 hr by broth dilution method; settings: MTCC 424, 24 h
Aspergillus niger [24] = assay: Antifungal activity against Aspergillus niger MTCC 2546 at 500 ug/ml after 18 hr by cup-plate method; settings: MTCC 2546, 18 h, read-out: DIZ
Micrococcus luteus [25] = assay: Antibacterial activity against Micrococcus luteus MTCC 1538 at 1000 ug/ml after 18 hr by cup-plate method; settings: MTCC 1538, 18 h, read-out: DIZ
Staphylococcus aureus [26] = assay: Antibacterial activity against Staphylococcus aureus MTCC 1430 after 24 hr by broth dilution method; settings: MTCC 1430, 24 h

O=c1c(/C=N/c2ccc(Cl)cc2)coc2ccccc12 showed a zone of inhibition at 1500 µg/mL (Staphylococcus aureus [1]) of 21 mm, a zone of inhibition at 1500 µg/mL (Aspergillus niger [2]) of 21 mm and an MIC (Aspergillus niger [3]) of 200 µg/mL (≈ 705 µM). For the same compound, the zone of inhibition at 200 µg/mL (Penicillium chrysogenum [4]) was 17 mm, the zone of inhibition at 1000 µg/mL (Pseudomonas aeruginosa [5]) was 20 mm and the zone of inhibition at 100 µg/mL (Aspergillus niger [6]) was 16 mm. For the same compound, the zone of inhibition at 1000 µg/mL (Penicillium chrysogenum [7]) was 20 mm, the zone of inhibition at 100 µg/mL (Micrococcus luteus [8]) was 16 mm and the zone of inhibition at 1000 µg/mL (Bacillus subtilis [9]) was 19 mm. For the same compound, the zone of inhibition at 1000 µg/mL (Pseudomonas fluorescens [10]) was 16 mm, the zone of inhibition at 200 µg/mL (Aspergillus niger [11]) was 18 mm and the zone of inhibition at 500 µg/mL (Bacillus pumilus [12]) was 17 mm. It also gave a zone of inhibition at 500 µg/mL (Escherichia coli) of 17 mm, an MIC (Penicillium chrysogenum [13]) of 200 µg/mL (≈ 705 µM) and a zone of inhibition at 200 µg/mL (Pseudomonas fluorescens [14]) of 12 mm. It also gave a zone of inhibition at 1000 µg/mL (Bacillus pumilus [15]) of 18 mm, a zone of inhibition at 500 µg/mL (Penicillium chrysogenum [16]) of 19 mm and a zone of inhibition at 200 µg/mL (Bacillus pumilus [17]) of 15 mm. It also gave a zone of inhibition at 1500 µg/mL (Bacillus pumilus [18]) of 19 mm, a zone of inhibition at 1500 µg/mL (Bacillus subtilis [19]) of 21 mm and a zone of inhibition at 500 µg/mL (Pseudomonas aeruginosa [20]) of 19 mm. The zone of inhibition at 200 µg/mL (Micrococcus luteus [21]) was 19 mm, the zone of inhibition at 500 µg/mL (Pseudomonas fluorescens [22]) was 14 mm and the MIC (Pseudomonas aeruginosa [23]) was 200 µg/mL (≈ 705 µM). It also gave a zone of inhibition at 500 µg/mL (Aspergillus niger [24]) of 19 mm, a zone of inhibition at 1000 µg/mL (Micrococcus luteus [25]) of 23 mm and an MIC (Staphylococcus aureus [26]) of 300 µg/mL (≈ 1060 µM).

Reference: ChEMBL document CHEMBL3045835, “Comparative study of conventional and microwave-assisted synthesis of some Schiff bases and their potential as antimicrobial agents” (2012)
